Numbered stars: 1 amine (or outer) side, 2 acyl side, 3 side chain; on linkers, the order of the positions; unused ones are H or OH. Bridge positions count the residues as written; N and C are the ends. Square brackets hold non-standard residues; d marks the D form. Peptide text beside a SMILES is read from it. * marks the point of attachment. Bip = N[C@@H](Cc1ccc(-c2ccccc2)cc1)C(=O)O; Phe(3-Me) = Cc1cccc(C[C@H](N)C(=O)O)c1; X6 = O=C(Cc1ccc(CN[*:1])cc1)[*:2]; 4Pal = N[C@@H](Cc1ccncc1)C(=O)O; X1 = O=C(CN1CCN([*:1])CC1)[*:2]; Cha = N[C@@H](CC1CCCCC1)C(=O)O; Cit = NC(=O)NCCC[C@H](N)C(=O)O; Carboxymethyl = O=C(O)C*; Orn = NCCC[C@H](N)C(=O)O; Aun = NCCCCCCCCCCC(=O)O; Dab = NCC[C@H](N)C(=O)O; Dap = NC[C@H](N)C(=O)O; AEEA = NCCOCCOCC(=O)O; Ac3c = NC1(C(=O)O)CC1
Target: T1, PD-1/PD-L1 interaction (PE-labeled human PD-L1-Ig binding to Jurkat cell line over-expressing human PD-1) (Homo sapiens, UniProt Q15116)
T1 construct: expressed in transfected cells; host or cells: Jurkat
T1 sequence (Q15116 25-288): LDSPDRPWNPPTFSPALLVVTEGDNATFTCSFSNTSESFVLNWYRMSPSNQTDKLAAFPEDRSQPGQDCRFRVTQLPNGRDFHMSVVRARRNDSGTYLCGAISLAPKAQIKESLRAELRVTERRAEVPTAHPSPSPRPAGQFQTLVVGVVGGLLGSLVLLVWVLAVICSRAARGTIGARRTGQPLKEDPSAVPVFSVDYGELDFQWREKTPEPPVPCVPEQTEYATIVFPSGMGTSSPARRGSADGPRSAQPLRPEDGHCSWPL
Test: Jurkat-PD-1 Cell Binding High-Content Screening Assay (CBA)
Type: cell-based
Details: Jurkat cell line over-expressing human PD-1; PE-labeled PD-L1-Ig 20 nM final; read-out: Jurkat hPD1-PDL1 IC50
Summary of the method: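 Read-out is high-content imaging of cell-bound phycoerythrin-tagged PD-L1-Ig on fixed, Hoechst-counterstained Jurkat cells that over-express human PD-1. Compound exposure lasts 2 h at 37° C before the labeled ligand (20 nM final) is added for a further hour.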

Row | Structure (SMILES) | IC50 [nM]
1 | CC(C)C[C@@H]1NC(=O)[C@H](Cc2c[nH]c3ccccc23)NC(=O)[C@H](CC(=O)O)NC(=O)[C@H](Cc2ccncc2)NC(=O)[C@H](Cc2ccc(OCC(=O)O)cc2)NC(=O)CSC[C@@H](C(=O)N2CCN(CC(=O)NCCCCCCCCCCC(=O)O)CC2)NC(=O)[C@H](CCCNC(N)=O)NC(=O)[C@H](C(C)C)NC(=O)[C@H](CC2CCCCC2)NC(=O)[C@H](CCN)NC(=O)[C@@H](CC(C)C)NC(=O)[C@H](CCCN)NC(=O)[C@H](C(C)C)NC(=O)[C@H](Cc2ccc(-c3ccccc3)cc2)NC1=O [Compound 1314] ({CH2CO}-Y(Carboxymethyl)[4Pal]DWL[Bip]V[Orn][dL][Dab][Cha]V[Cit]C[X1][Aun]-OH; thioether N-14) | 110
2 | Cc1cccc(C[C@@H]2NC(=O)[C@H](CC(=O)O)NC(=O)[C@H](Cc3ccc(OCC(=O)O)cc3)NC(=O)[C@H](CN)NC(=O)CSC[C@@H](C(=O)N[C@@H](CCN)C(=O)NCCCCCCCCCCC(=O)O)NC(=O)[C@@H](CO)NC(=O)[C@H](C(C)C)NC(=O)[C@H](CC3CCCCC3)NC(=O)[C@H](CCN)NC(=O)[C@@H](CC(C)C)NC(=O)[C@H](CCCN)NC(=O)[C@H](CCCNC(N)=O)NC(=O)[C@H](Cc3ccc(-c4ccccc4)cc3)NC(=O)[C@H](C(C)C)NC2=O)c1 [Compound 2000] ({CH2CO}-[Dap]Y(Carboxymethyl)D[Phe(3-Me)]V[Bip][Cit][Orn][dL][Dab][Cha]V[dS]C[Dab][Aun]-OH; thioether N-14) | 14.3
3 | Cc1cccc(C[C@@H]2NC(=O)[C@H](CC(=O)O)NC(=O)[C@H](Cc3ccc(OCC(=O)O)cc3)NC(=O)[C@H](CN)NC(=O)CSC[C@@H](C(=O)N[C@@H](CCCCN)C(=O)NCCCCCCCCCCC(=O)O)NC(=O)[C@@H](CO)NC(=O)[C@H](C(C)C)NC(=O)[C@H](CC3CCCCC3)NC(=O)[C@H](CCN)NC(=O)[C@@H](CC(C)C)NC(=O)[C@H](CCCN)NC(=O)[C@H](C(C)C)NC(=O)[C@H](Cc3ccc(-c4ccccc4)cc3)NC(=O)[C@H](C(C)C)NC2=O)c1 [Compound 2001] ({CH2CO}-[Dap]Y(Carboxymethyl)D[Phe(3-Me)]V[Bip]V[Orn][dL][Dab][Cha]V[dS]CK[Aun]-OH; thioether N-14) | 32.4
4 | Cc1cccc(C[C@@H]2NC(=O)[C@H](CC(=O)O)NC(=O)[C@H](Cc3ccc(OCC(=O)O)cc3)NC(=O)[C@H](CN)NC(=O)CSC[C@@H](C(=O)NCc3ccc(CC(=O)N[C@@H](CCN)C(=O)NCCCCCCCCCCC(=O)O)cc3)NC(=O)[C@H](CN)NC(=O)[C@H](C(C)C)NC(=O)[C@H](CC3CCCCC3)NC(=O)[C@H](CCN)NC(=O)[C@@H](CC(C)C)NC(=O)[C@H](CCCN)NC(=O)[C@H](C(C)C)NC(=O)[C@H](Cc3ccc(-c4ccccc4)cc3)NC(=O)[C@H](C(C)C)NC2=O)c1 [Compound 2003] ({CH2CO}-[Dap]Y(Carboxymethyl)D[Phe(3-Me)]V[Bip]V[Orn][dL][Dab][Cha]V[Dap]C[X6][Dab][Aun]-OH; thioether N-14) | 136
5 | Cc1cccc(C[C@@H]2NC(=O)[C@H](CC(=O)O)NC(=O)[C@H](Cc3ccc(OCC(=O)O)cc3)NC(=O)[C@H](CN)NC(=O)CSC[C@@H](C(=O)N[C@@H](CCCN)C(=O)NCc3ccc(CC(=O)NCCCCCCCCCCC(=O)O)cc3)NC(=O)[C@H](CN)NC(=O)[C@H](C(C)C)NC(=O)[C@H](CC3CCCCC3)NC(=O)[C@H](CCN)NC(=O)[C@@H](CC(C)C)NC(=O)[C@H](CCCN)NC(=O)[C@H](C(C)C)NC(=O)[C@H](Cc3ccc(-c4ccccc4)cc3)NC(=O)[C@H](C(C)C)NC2=O)c1 [Compound 2004] ({CH2CO}-[Dap]Y(Carboxymethyl)D[Phe(3-Me)]V[Bip]V[Orn][dL][Dab][Cha]V[Dap]C[Orn][X6][Aun]-OH; thioether N-14) | 18.6
6 | CC[C@H](C)[C@@H]1NC(=O)[C@H](Cc2ccc(-c3ccccc3)cc2)NC(=O)[C@H](C(C)C)NC(=O)[C@H](Cc2c[nH]c3ccccc23)NC(=O)[C@H](CC(=O)O)NC(=O)[C@H](Cc2ccc(OCC(=O)O)cc2)NC(=O)[C@H](Cc2ccncc2)NC(=O)CSC[C@@H](C(=O)N[C@@H](CCCN)C(=O)NCCOCCOCC(=O)NC2(C(=O)NCCCCCCCCCCC(=O)O)CC2)NC(=O)[C@H]([C@@H](C)O)NC(=O)[C@H](C(C)C)NC(=O)[C@H](CC(C)C)NC(=O)[C@H](CCN)NC(=O)[C@@H](CC(C)C)NC(=O)[C@H](CCCN)NC1=O [Compound 2005] ({CH2CO}-[4Pal]Y(Carboxymethyl)DWV[Bip]I[Orn][dL][Dab]LVTC[Orn][AEEA][Ac3c][Aun]-OH; thioether N-14) | 11.6
7 | CC[C@H](C)[C@@H]1NC(=O)[C@H](Cc2ccc(-c3ccccc3)cc2)NC(=O)[C@H](C(C)C)NC(=O)[C@H](Cc2c[nH]c3ccccc23)NC(=O)[C@H](CC(=O)O)NC(=O)[C@H](Cc2ccc(OCC(=O)O)cc2)NC(=O)[C@H](Cc2ccncc2)NC(=O)CSC[C@@H](C(=O)N[C@@H](CCCN)C(=O)NCCOCCOCC(=O)NC2(C(=O)NCCCCCCCCCCC(=O)O)CC2)NC(=O)[C@H](CN)NC(=O)[C@H](C(C)C)NC(=O)[C@H](CC(C)C)NC(=O)[C@H](CCN)NC(=O)[C@@H](CC(C)C)NC(=O)[C@H](CCCN)NC1=O [Compound 2006] ({CH2CO}-[4Pal]Y(Carboxymethyl)DWV[Bip]I[Orn][dL][Dab]LV[Dap]C[Orn][AEEA][Ac3c][Aun]-OH; thioether N-14) | 7.7
8 | Cc1cccc(C[C@@H]2NC(=O)[C@H](CC(=O)O)NC(=O)[C@H](Cc3ccc(OCC(=O)O)cc3)NC(=O)[C@H](CN)NC(=O)CSC[C@@H](C(=O)N[C@@H](C)C(=O)N[C@@H](CCCN)C(=O)NCC(=O)NCCCCCCCCCCC(=O)O)NC(=O)[C@H]([C@@H](C)O)NC(=O)[C@H](C(C)C)NC(=O)[C@H](CC3CCCCC3)NC(=O)[C@H](CCN)NC(=O)[C@@H](CC(C)C)NC(=O)[C@H](CCCN)NC(=O)[C@H](CCCNC(=N)N)NC(=O)[C@H](Cc3ccc(-c4ccccc4)cc3)NC(=O)[C@H](C(C)C)NC2=O)c1 [Compound 2007] ({CH2CO}-[Dap]Y(Carboxymethyl)D[Phe(3-Me)]V[Bip]R[Orn][dL][Dab][Cha]VTCA[Orn]G[Aun]-OH; thioether N-14) | 13.7
9 | Cc1cccc(C[C@@H]2NC(=O)[C@H](CC(=O)O)NC(=O)[C@H](Cc3ccc(OCC(=O)O)cc3)NC(=O)[C@H](CN)NC(=O)CSC[C@@H](C(=O)N[C@@H](CCCCN)C(=O)NCCCCCCCCCCC(=O)O)NC(=O)[C@@H](CO)NC(=O)[C@H](C(C)C)NC(=O)[C@H](CC(C)C)NC(=O)[C@H](CCN)NC(=O)[C@@H](CC(C)C)NC(=O)[C@H](CCCN)NC(=O)[C@H](C(C)C)NC(=O)[C@H](Cc3ccc(-c4ccccc4)cc3)NC(=O)[C@H](C(C)C)NC2=O)c1 [Compound 2009] ({CH2CO}-[Dap]Y(Carboxymethyl)D[Phe(3-Me)]V[Bip]V[Orn][dL][Dab]LV[dS]CK[Aun]-OH; thioether N-14) | 17.2
10 | Cc1cccc(C[C@@H]2NC(=O)[C@H](CC(=O)O)NC(=O)[C@H](Cc3ccc(OCC(=O)O)cc3)NC(=O)[C@H](CN)NC(=O)CSC[C@@H](C(=O)NC3(C(=O)NCCCCCCCCCCC(=O)O)CC3)NC(=O)[C@H]([C@@H](C)O)NC(=O)[C@H](C(C)C)NC(=O)[C@H](CC3CCCCC3)NC(=O)[C@H](CCN)NC(=O)[C@@H](CC(C)C)NC(=O)[C@H](CCCN)NC(=O)[C@H](CCCNC(N)=O)NC(=O)[C@H](Cc3ccc(-c4ccccc4)cc3)NC(=O)[C@H](C(C)C)NC2=O)c1 [Compound 2010] ({CH2CO}-[Dap]Y(Carboxymethyl)D[Phe(3-Me)]V[Bip][Cit][Orn][dL][Dab][Cha]VTC[Ac3c][Aun]-OH; thioether N-14) | 15.3
11 | Cc1cccc(C[C@@H]2NC(=O)[C@H](CC(=O)O)NC(=O)[C@H](Cc3ccc(OCC(=O)O)cc3)NC(=O)[C@H](CN)NC(=O)CSC[C@@H](C(=O)NCc3ccc(CC(=O)N[C@@H](CCCCN)C(=O)NCCCCCCCCCCC(=O)O)cc3)NC(=O)[C@H](CN)NC(=O)[C@H](C(C)C)NC(=O)[C@H](CC3CCCCC3)NC(=O)[C@H](CCN)NC(=O)[C@@H](CC(C)C)NC(=O)[C@H](CCCN)NC(=O)[C@H](C(C)C)NC(=O)[C@H](Cc3ccc(-c4ccccc4)cc3)NC(=O)[C@H](C(C)C)NC2=O)c1 [Compound 2011] ({CH2CO}-[Dap]Y(Carboxymethyl)D[Phe(3-Me)]V[Bip]V[Orn][dL][Dab][Cha]V[Dap]C[X6]K[Aun]-OH; thioether N-14) | 24.8
12 | Cc1cccc(C[C@@H]2NC(=O)[C@H](CC(=O)O)NC(=O)[C@H](Cc3ccc(OCC(=O)O)cc3)NC(=O)[C@H](CN)NC(=O)CSC[C@@H](C(=O)N[C@@H](CCCCN)C(=O)NCc3ccc(CC(=O)NCCCCCCCCCCC(=O)O)cc3)NC(=O)[C@H](CN)NC(=O)[C@H](C(C)C)NC(=O)[C@H](CC3CCCCC3)NC(=O)[C@H](CCN)NC(=O)[C@@H](CC(C)C)NC(=O)[C@H](CCCN)NC(=O)[C@H](C(C)C)NC(=O)[C@H](Cc3ccc(-c4ccccc4)cc3)NC(=O)[C@H](C(C)C)NC2=O)c1 [Compound 2012] ({CH2CO}-[Dap]Y(Carboxymethyl)D[Phe(3-Me)]V[Bip]V[Orn][dL][Dab][Cha]V[Dap]CK[X6][Aun]-OH; thioether N-14) | 46
13 | CC[C@H](C)[C@@H]1NC(=O)[C@H](Cc2ccc(-c3ccccc3)cc2)NC(=O)[C@H](C(C)C)NC(=O)[C@H](Cc2c[nH]c3ccccc23)NC(=O)[C@H](CC(=O)O)NC(=O)[C@H](Cc2ccc(OCC(=O)O)cc2)NC(=O)[C@H](Cc2ccncc2)NC(=O)CSC[C@@H](C(=O)N[C@@H](CCCN)C(=O)NCCOCCOCC(=O)NCc2ccc(CC(=O)NCCCCCCCCCCC(=O)O)cc2)NC(=O)[C@H](CN)NC(=O)[C@H](C(C)C)NC(=O)[C@H](CC(C)C)NC(=O)[C@H](CCN)NC(=O)[C@@H](CC(C)C)NC(=O)[C@H](CCCN)NC1=O [Compound 2014] ({CH2CO}-[4Pal]Y(Carboxymethyl)DWV[Bip]I[Orn][dL][Dab]LV[Dap]C[Orn][AEEA][X6][Aun]-OH; thioether N-14) | 33

— patent US20260022142A1, “MACROCYCLIC IMMUNOMODULATORS” (Bristol-Myers Squibb Company, priority 2022, published 2026)
